Structures are written as SMILES. Counter-ions that a name gives are not always drawn. Like-named read-outs stand apart in the source and are kept apart here.

In test [1] the target is Vibrio cholera ASADH (V. cholera ASADH), aspartate semialdehyde dehydrogenase. The test can be described thus: Inactivation of the bacterial ASADH ortholog from Vibrio cholera by vinyl sulfones (comparison with the fungal enzyme). Type of test: biochemical. As to conditions: FIG. 6, irreversible covalent inactivators. From the text:
FIG. 6 is a table showing a comparison of the differences in affinities and rates of inactivation of example vinyl sulfones as inactivators of either a bacterial or a fungal ASADH, in accordance with some embodiments of the present technology; and
Enhanced reactivity upon binding to an enzyme target is a desirable property if these vinyl sulfones are to serve as effective antifungal agents. However, increased selectivity in target binding is equally important. […] The ASADH from the […] bacterium Vibrio cholera has >90% overall sequence homology to the C. albicans enzyme, with the exception of a helical domain insert (Arachea et al., 2010), and all of the essential active site functional amino acids are fully conserved between these enzyme forms. Five different vinyl sulfones that span the fungal ASADH potency spectrum were selected and examined as potential inactivators of the bacterial ASADH. […] However, importantly, several of these compounds already show some level of discrimination between the fungal and bacterial ASADHs (Table 3).
Ideally, any antifungal agent should have high specificity, interacting only with its intended target. […] Each of the vinyl sulfones that were examined as inactivators of a fungal ASADH were also found to inactivate the bacterial ASADH ortholog, but several of them do so with lower efficiencies. In particular, the best fungal ASADH inactivators with a polar functional group at the 4-position of the benzyl ring are from 7 to 9-fold less efficient when examined as bacterial ASADH inactivators (See e.g. Table 3). By contrast, the inactivators with this polar group in the 2- or 3-position show no significant differences in reactivity between the fungal and bacterial forms of ASADH. The respective active sites of these two ASADH orthologs are virtually identical. However, a conserved arginine (Arg-18) found in fungal ASADH that is proposed to interact with the 4-nitro or the 4-carboxy groups in these inactivators (FIG. 1) is replaced with either a valine or a threonine in the bacterial ASADH family.
The ASADH from Candida albicans (CalASADH) was purified using an ÄKTA chromatography system as previously described (Arachea et al., 2010), with only minor modifications. […] The enzyme activity was assayed at 25° C. by following the production of NADPH at 340 nm in a SpectraMax 190 plate reader (Molecular Devices). Enzyme inhibitors were evaluated by the same assay in the presence of 120 mM CHES buffer, pH 8.6, with 120 mM KCl, 0.3 mM ASA, 1.5 mM NADP, 20 mM phosphate and varying concentrations of each potential inhibitory compound to be tested. […]

The target in test [2] is T1, Candida albicans ASADH (CalASADH), aspartate semialdehyde dehydrogenase, his-tagged (Candida albicans, UniProt Q5ALM0).
T1 construct: His tag; made in house
T1 sequence (Q5ALM0 1-365): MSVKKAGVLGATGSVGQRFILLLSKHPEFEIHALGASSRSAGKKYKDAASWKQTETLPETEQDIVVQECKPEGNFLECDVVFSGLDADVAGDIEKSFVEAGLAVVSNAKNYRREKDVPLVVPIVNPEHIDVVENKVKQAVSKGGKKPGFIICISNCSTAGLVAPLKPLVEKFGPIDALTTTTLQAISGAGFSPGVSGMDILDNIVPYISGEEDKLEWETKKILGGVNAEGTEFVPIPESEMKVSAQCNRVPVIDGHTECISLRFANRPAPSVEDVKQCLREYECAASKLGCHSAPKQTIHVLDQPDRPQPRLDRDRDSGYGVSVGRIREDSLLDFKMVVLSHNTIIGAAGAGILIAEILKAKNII
The test is described as follows: Inhibition/time-dependent inactivation of Candida albicans ASADH by vinyl sulfones (purified his-tagged enzyme; NADPH production at 340 nm). It is filed as biochemical. As to conditions: FIG. 5; pH 8.6, 25° C., 0.3 mM ASA, 1.5 mM NADP, 20 mM phosphate; irreversible covalent inactivators. Here is the method:
FIG. 5 is a table showing the affinities and the rates of inactivation of example vinyl sulfones as inactivators of a fungal ASADH, in accordance with some embodiments of the present technology;
Their initial inhibition potencies (Ki values) were determined by varying the concentration of each vinyl sulfone in the presence of fixed, non-saturating substrate levels.
Aryl vinyl sulfones can be reasonably potent inhibitors of CalASADH, each inhibitor was then tested to determine if it would function as an enzyme inactivator. […] In most cases the residual enzyme activity, measured following a subsequent 20-fold dilution into an assay mixture, decreased to less than 5% of the control rate after incubation with low micromolar levels of these inactivators for 10 min or less. To determine the rate of inactivation the concentration of each vinyl sulfone in this pre-incubation mixture was then varied, centered around their initial measured Ki values. The rate of activity loss observed in each incubation reaction (kobs) was plotted against the inhibitor concentration to determine the inactivation rate (kinact) for that compound and the concentration that produces half-maximal inactivation (Ki). […] The proposed product of the reaction of the active site nucleophile (Cys-156) with this inactivator predicts key interactions of the p-nitro group with Arg-18 and Ser-187, and the protonation of the covalent intermediate by His-256. […] Reaction of this inactivator with the active site nucleophile (Cys-156) predicts keys interactions between its carboxyl group and several backbone amide nitrogens that would shift this adduct further from the active site base (His-256). FIG. 3 illustrates inactivation of Candida albicans ASADH by 4-(methylvinylsulfonyl)nitrobenzene. Plot of the natural log of the ratio of enzyme activity at each time point over the initial enzyme activity, showing the loss of activity as a functional of incubation time for different concentrations of inactivator: 0 μM, 0.75 μM, 1.5 μM, 3 μM, 6 μM. The resulting observed rates at each concentration (kobs) were plotted against the inactivator concentration and a non-linear fit to these replotted data yielded the rate of inactivation (kinact) and the inhibition constant (Ki).
The ASADH from Candida albicans (CalASADH) was purified using an ÄKTA chromatography system as previously described (Arachea et al., 2010), with only minor modifications. A nickel-immobilized metal affinity (IMAC) column was used for the purification of the his-tagged enzyme, with an initial buffer wash containing 20 mM imidazole to remove loosely bound proteins before elution with a 20 to 400 mM imidazole gradient. The enzyme activity was assayed at 25° C. by following the production of NADPH at 340 nm in a SpectraMax 190 plate reader (Molecular Devices). Enzyme inhibitors were evaluated by the same assay in the presence of 120 mM CHES buffer, pH 8.6, with 120 mM KCl, 0.3 mM ASA, 1.5 mM NADP, 20 mM phosphate and varying concentrations of each potential inhibitory compound to be tested. The data were fitted to a competitive inhibitor model which corrects for the levels of substrates present relative to their individual Km values.
To examine the possibility of enzyme inactivation each vinyl sulfone compound was incubated in a defined concentration range with 30 μg/ml of CalASADH, with the inhibitor concentrations grouped around their determined Ki values. Aliquots (10 μl) were removed from the enzyme-inhibitor reaction mixture at various times ranging from 30 secs to 60 min, with most compounds examined from 1 to 10 min at 2 min intervals. Each aliquot was then added to a 190 μl of the same assay mixture as described above for the inhibition studies to measure the residual enzyme activity. […]

Test [3] deals with T2, CalASADH (Candida albicans, UniProt Q5ALM0).
T2 construct: His tag; made in house
T2 sequence (Q5ALM0 1-365): T1 sequence (Q5ALM0 1-365)
The test can be described thus: Reversibility of CalASADH inactivation by exogenous thiols. As to conditions: incubated 10 min, read-out: residual activity of CalASADH. Type of test: biochemical. Here is the method: This loss of activity supports the hypothesis that these vinyl sulfones are covalently modifying this enzyme. To determine whether this inactivation can be reversed by the introduction of an exogenous nucleophile a large excess of either cysteine (5 mM) or glutathione (10 mM) was added to the reaction mixture after incubation, and the activity of this inactivated enzyme was then monitored. Samples of CalASADH that had been incubated either with 3 μM 4-(methylvinylsulfonyl)nitrobenzene or with 100 μM 3-(phenylsulfonyl)acrylic acid for 10 min were measured to have from 5 to 10% residual activity. At this point, after either cysteine or glutathione was added to each reaction mixture, the residual enzyme activity was monitored as described above.

The target of test [4] is C. auris ASADH (Candidozyma auris, UniProt A0A2H0ZN20). The test can be described thus: C. auris ASADH irreversible inhibition. It is filed as biochemical. Here is the method: These amino acid analogs may be synthesized in accordance with various techniques and schemes provided herein. Two are vinyl sulfones and one is an acrylamide. Accordingly, the core functional group of compounds described herein can be at least one of a vinyl sulfone and/or an acrylamide. The vinyl sulfones were tested against C. auris ASADH as irreversible inhibitors.

Test [5] has as its system S. aureus. The test can be described thus: Disk diffusion assay, S. aureus. Type of test: cell-based. Here is the method: (§1) The following disk diffusion assays were performed with example compounds described above to assess the ability of compounds to inhibit growth of microorganism. A compound that inhibits its target enzyme may perform poorly for a number of reasons, including low solubility in water or slow rate of transport across a microbial membrane.

Test [6] deals with K pneumoniae. The test can be described thus: Disk diffusion assay, K pneumoniae. It is filed as cell-based. Here is the method: as §1

C. auris ASADH, sequence (A0A2H0ZN20 entry or part of it): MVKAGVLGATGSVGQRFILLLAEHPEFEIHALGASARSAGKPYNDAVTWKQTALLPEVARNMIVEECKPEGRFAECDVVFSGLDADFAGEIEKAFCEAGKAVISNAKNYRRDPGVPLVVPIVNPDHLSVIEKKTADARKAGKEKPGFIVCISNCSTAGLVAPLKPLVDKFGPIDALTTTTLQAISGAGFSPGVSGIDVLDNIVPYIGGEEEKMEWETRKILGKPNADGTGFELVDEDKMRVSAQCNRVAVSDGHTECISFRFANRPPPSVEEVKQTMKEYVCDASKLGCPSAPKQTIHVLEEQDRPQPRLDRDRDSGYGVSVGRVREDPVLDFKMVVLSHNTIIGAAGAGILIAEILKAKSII

Turning to `CS(=O)(=O)/C=C/c1ccc(C(=O)O)cc1` [Compound 1, 4-(methylsulfonylvinyl)benzoic acid], the figures for the Ki in test [1] and in test [2] were 4.45 ± 0.25 µM and 0.78 ± 0.1 µM, respectively.
In test [2], `O=S(=O)(/C=C/c1ccccn1)c1ccccc1` [Compound 8, 2-(Phenylsulfonylvinyl)pyridine] yielded a Ki of 8.49 ± 0.94 µM.
Take `O=S(=O)(/C=C/c1ccncc1)c1ccccc1` [Compound 5, 4-(phenylsulfonylvinyl)pyridine]: in test [2], the Ki was 2.16 ± 0.24 µM.
In the case of `O=C(O)/C=C/S(=O)(=O)c1ccccc1` [3-(phenylsulfonyl)acrylic acid], the remaining activity at 100 µM in test [3] (100 μM) lay within 5 to 10%.
In the case of `O=S(=O)(/C=C/c1ccccc1)C(F)(F)F` [Compound 7, Trifluoromethylsulfonylvinylbenzene], the Ki in test [2] worked out at 21.7 ± 8 µM.
In turn, `CS(=O)(=O)/C=C/c1cccnc1` [Compound 10, 3-(methylsulfonylvinyl)pyridine] displayed a Ki in test [2] of 25.1 ± 6.8 µM.
In the case of `CS(=O)(=O)/C=C/c1ccccc1[N+](=O)[O-]` [Compound 14, 2-(methylsulfonylvinyl)nitrobenzene], the Ki is 2.57 ± 0.23 µM in test [1] and 56.7 ± 2.7 µM in test [2].
For the compound `CS(=O)(=O)/C=C/c1ccc([N+](=O)[O-])cc1` [4-(methylvinylsulfonyl)nitrobenzene, 4-(methylsulfonylvinyl)nitrobenzene], the remaining activity at 3 µM in test [3] (3 μM) lay in the range of 5 to 10%.
With `CS(=O)(=O)/C=C/c1ccccc1` [Compound 6, Methylsulfonylvinylbenzene], the Ki in test [2] worked out at 4.26 ± 0.83 µM.
For `CS(=O)(=O)C=CC[C@H](N)C(=O)O` [S-methylsulfonylvinylacrylamide, 3-(S-methylsulfonylvinyl)-alanine hydrochloride], the Ki in test [4] (irreversible inhibitors, read-out: inhibitory constant) worked out at 0.1 µM.
In test [2], `CS(=O)(=O)/C=C/c1ccncc1` [Compound 9, 4-(methylsulfonylvinyl)pyridine] gave a Ki of 5.69 ± 0.78 µM.
On to `O=C(O)/C=C/S(=O)(=O)c1ccccc1` [Compound 15, 3-(phenylsulfonyl)acrylic acid], for which the Ki in test [2] was 67.1 ± 15.8 µM.
On to `CS(=O)(=O)/C=C/c1ccc(O)c(O)c1` [Compound 4, 4-(methylsulfonylvinyl)-1,2-benzenediol], for which the Ki in test [2] stood at 3.52 ± 0.42 µM.
Consider `CS(=O)(=O)/C=C/c1ccc([N+](=O)[O-])cc1` [Compound 2, 4-(methylsulfonylvinyl)nitrobenzene], for which the Ki in test [1] was found to be 6.29 ± 0.59 µM; in test [2] it was 1.02 ± 0.28 µM.
`NC(C/C=C/S(=O)(=O)Cc1ccccc1)C(=O)O` (centres unmarked) [S-benzylsulfonylvinylalanine, 3-(benzylsulfonylvinyl)-alanine hydrochloride] registered a Ki in test [4] of 0.3 µM.
In test [2], `O=S(=O)(/C=C/c1cccnc1)c1ccccc1` [Compound 11, 3-(Phenylsulfonylvinyl)pyridine] had a Ki of 42.2 ± 3 µM.
The compound `CS(=O)(=O)/C=C/c1cccc(C(=O)O)c1` [Compound 13, 3-(methylsulfonylvinyl)benzoic acid] showed a Ki in test [2] of 36.9 ± 6.2 µM.
Regarding `CS(=O)(=O)/C=C/c1ccccn1` [Compound 3, 2-(methylsulfonylvinyl)pyridine], in test [2], the Ki worked out at 2.64 ± 0.22 µM.
Regarding `CS(=O)(=O)/C=C/c1cccc([N+](=O)[O-])c1` [Compound 12, 3-(methylsulfonylvinyl)nitrobenzene], the Ki was determined as 10.3 ± 2.3 µM in test [1] and 19.6 ± 1.4 µM in test [2].
Regarding `NC(=O)/C=C/S(=O)(=O)c1ccccc1` [PhSAm, 3-S-Phenylsulfonylacrylamide], the “disk diffusion, S. aureus” value in test [5] (vinyl sulfone carboxamides) is “strong”. In addition, in test [6] (vinyl sulfone carboxamides), the “disk diffusion, K pneumoniae” value is given as “strong”.
With `CS(=O)(=O)/C=C/C(N)=O` [MeSAm, 3-S-Methylsulfonylacrylamide], the “disk diffusion, S. aureus” value in test [5] (vinyl sulfone carboxamides) is on record as “strong”. In addition, the “disk diffusion, K pneumoniae” value in test [6] (vinyl sulfone carboxamides) is on record as “strong”.
On to `CS(=O)(=O)/C=C/c1cc(O)ccc1O` [2-MSV-dihydroxbenzene, 2-(S-methylsulfonylvinyl)1,4-dihydroxybenzene], for which, in test [5] (aromatic compounds), the “disk diffusion, S. aureus” value was “medium”. The “disk diffusion, K pneumoniae” value in test [6] (aromatic compounds) is on record as “weak”.

These data come from patent US20240180158A1, “COMPOUNDS HAVING SELECTIVE INACTIVATION ACTIVITY” (University of North Carolina at Wilmington, priority 2021, published 2024).
